From US20110064680A1, “NATURALLY DERIVED WATERPROOFING AGENTS FOR AQUEOUS-BASED PERSONAL CARE PRODUCTS” (Pinova, Inc., priority 2009, published 2011) come the findings set out here.

A short description of the data set: Solubility of solid sunscreen actives in the hydrogenated wood resins. The settings on record: solvent: hydrogenated wood resins. The data set is classed as physicochemical. The text has this:
During the making of the sunscreens, it was observed that the systems containing the hydrogenated wood resins more easily solubilzed the solid sunscreens (Oxybenzone and Avobenzone). […]

For `COc1ccc(C(=O)CC(=O)c2ccc(C(C)(C)C)cc2)cc1` [Avobenzone], the “solubility of these actives in the hydrogenated wood resins” value is recorded as 13%. With `COc1ccc(C(=O)c2ccccc2)c(O)c1` [Oxybenzone] the figure was 24%.
